For one data set, the target named is T1, human NMUR1 receptor (Homo sapiens, UniProt Q9HB89).
T1 construct: expressed in transfected cells; host or cells: CHO-K1
T1 sequence (Q9HB89 1-426): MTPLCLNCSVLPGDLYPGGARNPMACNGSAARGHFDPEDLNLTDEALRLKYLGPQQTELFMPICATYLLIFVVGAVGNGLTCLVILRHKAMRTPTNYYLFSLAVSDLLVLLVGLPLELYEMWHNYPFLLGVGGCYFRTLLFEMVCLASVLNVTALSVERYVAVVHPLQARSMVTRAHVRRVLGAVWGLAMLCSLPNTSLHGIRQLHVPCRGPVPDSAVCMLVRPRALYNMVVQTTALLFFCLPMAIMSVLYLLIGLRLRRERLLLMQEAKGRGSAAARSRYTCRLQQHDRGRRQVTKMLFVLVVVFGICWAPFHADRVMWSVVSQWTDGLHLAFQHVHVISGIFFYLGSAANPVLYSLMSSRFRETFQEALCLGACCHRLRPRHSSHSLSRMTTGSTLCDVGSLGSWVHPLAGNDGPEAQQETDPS
The data set can be described thus: IP1 Gq HTRF assay, activation of human NMUR1 in buffer. The class given is cell-based. The settings on record: CHO-K1 cells expressing human NMUR1, stimulation buffer with 0.1% BSA; read-out: EC50 (hNMUR1) buffer. An outline of the steps:
(§1)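 CHO-K1 cells stably expressing human NMUR1 or NMUR2, seeded 24 h before assay, stimulated with peptide agonists (8-point dose-response, 1% DMSO final) in HEPES/HBSS buffer with 50 mM LiCl and 0.1% BSA, pH 7.4, 1 h at 37 °C. IP1 accumulation read by HTRF competition (665/620 nm); EC50 from 4-parameter sigmoidal fit.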

A short description of the next data set: physchem. The class given is physicochemical. The method, boiled down: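 Peptide TFA salts were shaken at a nominal 10 mg/mL in 0.1 M phosphate buffer, pH 6 to 8, for 2 h at room temperature and then filtered. Reversed-phase HPLC peak area was compared with a 1 mg/mL control in buffer or DMSO to give solubility. The pH of each sample was recorded.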
For data set [1], the target named is T2, human NMUR2 receptor (Homo sapiens, UniProt Q9GZQ4). Briefly: IP1 Gq HTRF assay, activation of human NMUR2 in buffer. The arrangement: expressed in transfected cells; host or cells: CHO-K1. The data set is classed as cell-based. The settings on record: CHO-K1 cells expressing human NMUR2, stimulation buffer with 0.1% BSA; read-out: EC50 (hNMUR2) buffer. An outline of the steps:
as §1

Data set [2] addresses T2, human NMUR2 receptor. The data set can be described thus: IP1 Gq HTRF assay, activation of human NMUR2 in human plasma. The data set is classed as cell-based. The arrangement: expressed in transfected cells; host or cells: CHO-K1. The settings on record: CHO-K1 cells expressing human NMUR2, 100% human plasma; read-out: EC50 (hNMUR2) human plasma. An outline of the steps:
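CHO-K1 cells stably expressing human NMUR2 exposed to peptide agonists (8-point dose-response) in 100% human plasma with 50 mM LiCl, 1% DMSO, for 1 h at 37° C. IP1 accumulation read by HTRF competition (665/620 nm ratio). EC50 from 4-parameter sigmoidal fit.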
(In TR-FRET formats the signal depends on donor and acceptor labels being close together.)

What is called EC50 is the concentration at which the effect is half-maximal. Usually solubility stands for the concentration that dissolves in the medium under given conditions. A low value points to little dissolved substance.

Converted amounts (≈) assume the structure as drawn. Residues, ends and D or L forms follow the SMILES beside them.

T2 sequence (Q9GZQ4 whole entry): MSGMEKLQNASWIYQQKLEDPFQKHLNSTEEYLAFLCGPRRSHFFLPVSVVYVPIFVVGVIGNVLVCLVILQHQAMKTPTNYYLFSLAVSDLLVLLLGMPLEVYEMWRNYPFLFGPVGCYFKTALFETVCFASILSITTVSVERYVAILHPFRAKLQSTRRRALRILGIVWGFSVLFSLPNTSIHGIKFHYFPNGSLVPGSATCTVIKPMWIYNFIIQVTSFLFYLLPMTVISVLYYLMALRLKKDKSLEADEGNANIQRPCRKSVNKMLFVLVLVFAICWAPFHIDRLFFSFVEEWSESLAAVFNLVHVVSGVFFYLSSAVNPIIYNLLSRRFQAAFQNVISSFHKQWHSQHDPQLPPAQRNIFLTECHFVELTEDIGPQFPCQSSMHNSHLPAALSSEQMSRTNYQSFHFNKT

`CCCC[C@H](NC(=O)[C@H](CC(C)C)N(C)C(=O)[C@H](Cc1ccccc1)NC(=O)[C@H](Cc1ccc(O)cc1)NC(=O)CN1CCN(CCNC(=O)CN(C)C(=O)CN(C)C(=O)CN(C)C(=O)CN(C)C(=O)CN(C)C(=O)CN(C)C(=O)CN(C)C(=O)CN(C)C(=O)CN(C)C(=O)CN(C)C(=O)CN(C)C(=O)CN(C)C(=O)CC[C@H](NC(=O)CC[C@H](NC(=O)CC[C@H](NC(=O)CCCCCCCCCCCCCCCCCCC(=O)O)C(=O)O)C(=O)O)C(=O)O)CC1)C(=O)N[C@@H](CCCNC(=N)N)C(=O)N1CCC[C@H]1C(=O)N[C@@H](CCCNC(=N)N)C(=O)NCC(N)=O` [Compound 6, C20DA-gGlu3-Sar12-AEPipAc-Tyr-Phe-NMeLeu-Nle-Arg-Pro-Arg-Gly-NH2]: the values for the EC50 at human NMUR1 receptor, on human NMUR2 receptor [1] and on human NMUR2 receptor [2] were 120 nM, 2 nM and 6.9 nM, respectively. The compound also gave a solubility at 2 h in “physchem” (pH 7.2) of 4600 µg/mL (≈ 1.66 mM).
Consider `CCCC[C@H](NC(=O)[C@H](CC(C)C)N(C)C(=O)[C@H](Cc1ccccc1)NC(=O)[C@H](Cc1ccc(O)cc1)NC(=O)CN1CCN(CCNC(=O)CN(C)C(=O)CN(C)C(=O)CN(C)C(=O)CN(C)C(=O)CN(C)C(=O)CN(C)C(=O)CN(C)C(=O)CN(C)C(=O)CN(C)C(=O)CN(C)C(=O)CN(C)C(=O)CN(C)C(=O)CN(C)C(=O)CN(C)C(=O)CN(C)C(=O)CC[C@H](NC(=O)CC[C@H](NC(=O)CC[C@H](NC(=O)CCCCCCCCCCCCCCCCC(=O)O)C(=O)O)C(=O)O)C(=O)O)CC1)C(=O)N[C@@H](CCN)C(=O)N(C)[C@@H](C)C(=O)N[C@@H](CCCNC(=N)N)C(=O)NCC(N)=O` [Compound 23, C18DA-gGlu3-Sar15-AEPipAc-Tyr-Phe-NMeLeu-Nle-Dbu-NMeAla-Arg-Gly-NH2] (HELM PEPTIDE1{[O=C(O)CCCCCCCCCCCCCCCCC(=O)[*:2]].[gGlu].[gGlu].[gGlu].[Sar].[Sar].[Sar].[Sar].[Sar].[Sar].[Sar].[Sar].[Sar].[Sar].[Sar].[Sar].[Sar].[Sar].[Sar].[O=C(CN1CCN(CCN[*:1])CC1)[*:2]].Y.F.[meL].[Nle].[Dab].[meA].R.G.[am]}$$$$V2.0), for which the results for the EC50 at human NMUR1 receptor, at human NMUR2 receptor [1] and on human NMUR2 receptor [2] were above 1000 nM, 3.3 nM and 11.1 nM, respectively. This compound displayed a solubility at 2 h in the data set “physchem” (pH 7.3) of 8900 µg/mL (≈ 3.08 mM).
For `CCCC[C@H](NC(=O)[C@H](CC(C)C)N(C)C(=O)[C@H](Cc1ccccc1)NC(=O)[C@H](Cc1ccc(O)cc1)NC(=O)CN1CCN(CCNC(=O)CN(C)C(=O)CN(C)C(=O)CN(C)C(=O)CN(C)C(=O)CN(C)C(=O)CN(C)C(=O)CN(C)C(=O)CN(C)C(=O)CN(C)C(=O)CC[C@H](NC(=O)CC[C@H](NC(=O)CC[C@H](NC(=O)CCCCCCCCCCCCCCCCC(=O)O)C(=O)O)C(=O)O)C(=O)O)CC1)C(=O)N[C@@H](CCN)C(=O)N1CCC[C@H]1C(=O)N[C@@H](CCCNC(=N)N)C(=O)NCC(N)=O` [Compound 24, C18DA-gGlu3-Sar9-AEPipAc-Tyr-Phe-NMeLeu-Nle-Dbu-Pro-Arg-Gly-NH2] (HELM PEPTIDE1{[O=C(O)CCCCCCCCCCCCCCCCC(=O)[*:2]].[gGlu].[gGlu].[gGlu].[Sar].[Sar].[Sar].[Sar].[Sar].[Sar].[Sar].[Sar].[Sar].[O=C(CN1CCN(CCN[*:1])CC1)[*:2]].Y.F.[meL].[Nle].[Dab].P.R.G.[am]}$$$$V2.0) the same measures were 1000 nM, 1.4 nM, 12.6 nM and 9500 µg/mL (≈ 3.84 mM).
As for `CCCC[C@H](NC(=O)[C@H](CC(C)C)N(C)C(=O)[C@H](Cc1ccccc1)NC(=O)[C@H](Cc1ccc(O)cc1)NC(=O)CN1CCN(CCNC(=O)CN(C)C(=O)CN(C)C(=O)CN(C)C(=O)CN(C)C(=O)CN(C)C(=O)CN(C)C(=O)CN(C)C(=O)CN(C)C(=O)CN(C)C(=O)CN(C)C(=O)CN(C)C(=O)CN(C)C(=O)CN(C)C(=O)CN(C)C(=O)CN(C)C(=O)CC[C@H](NC(=O)CC[C@H](NC(=O)CC[C@H](NC(=O)CCCCCCCCCCCCCCCCCCC(=O)O)C(=O)O)C(=O)O)C(=O)O)CC1)C(=O)N[C@@H](CCN)C(=O)N(C)[C@@H](C)C(=O)N[C@@H](CCCNC(=N)N)C(=O)NCC(N)=O` [Compound 43, C20DA-gGlu3-Sar15-AEPipAc-Tyr-Phe-NMeLeu-Nle-Dbu-NMeAla-Arg-Gly-NH2] (HELM PEPTIDE1{[O=C(O)CCCCCCCCCCCCCCCCCCC(=O)[*:2]].[gGlu].[gGlu].[gGlu].[Sar].[Sar].[Sar].[Sar].[Sar].[Sar].[Sar].[Sar].[Sar].[Sar].[Sar].[Sar].[Sar].[Sar].[Sar].[O=C(CN1CCN(CCN[*:1])CC1)[*:2]].Y.F.[meL].[Nle].[Dab].[meA].R.G.[am]}$$$$V2.0), the EC50 at human NMUR1 receptor is above 1000 nM; at human NMUR2 receptor [1] it was 3.9 nM; on human NMUR2 receptor [2] it was 10.1 nM. The same compound returned a solubility at 2 h in “physchem” (pH 7) of 5600 µg/mL (≈ 1.92 mM).
Regarding `CCCC[C@H](NC(=O)[C@H](CC(C)C)N(C)C(=O)[C@H](Cc1ccccc1)NC(=O)[C@H](Cc1ccc(O)cc1)NC(=O)CN1CCN(CCNC(=O)CN(C)C(=O)CN(C)C(=O)CN(C)C(=O)CN(C)C(=O)CN(C)C(=O)CN(C)C(=O)CN(C)C(=O)CN(C)C(=O)CN(C)C(=O)CC[C@H](NC(=O)CC[C@H](NC(=O)CC[C@H](NC(=O)CCCCCCCCCCCCCCCCC(=O)O)C(=O)O)C(=O)O)C(=O)O)CC1)C(=O)N[C@@H](CCN)C(=O)N(C)[C@@H](C)C(=O)N[C@@H](CCCNC(=N)N)C(=O)NCC(N)=O` [Compound 28, C18DA-gGlu3-Sar9-AEPipAc-Tyr-Phe-NMeLeu-Nle-Dbu-NMeAla-Arg-Gly-NH2] (HELM PEPTIDE1{[O=C(O)CCCCCCCCCCCCCCCCC(=O)[*:2]].[gGlu].[gGlu].[gGlu].[Sar].[Sar].[Sar].[Sar].[Sar].[Sar].[Sar].[Sar].[Sar].[O=C(CN1CCN(CCN[*:1])CC1)[*:2]].Y.F.[meL].[Nle].[Dab].[meA].R.G.[am]}$$$$V2.0), the EC50 at human NMUR1 receptor is above 1000 nM; on human NMUR2 receptor [1], 1.4 nM; on human NMUR2 receptor [2], 10.8 nM. The compound also displayed a solubility at 2 h in “physchem” (pH 7.2) of 8500 µg/mL (≈ 3.46 mM).
For `CCCC[C@H](NC(=O)[C@H](CC(C)C)N(C)C(=O)[C@H](Cc1ccccc1)NC(=O)[C@H](Cc1ccc(O)cc1)NC(=O)CN1CCN(CCNC(=O)CN(C)C(=O)CN(C)C(=O)CN(C)C(=O)CN(C)C(=O)CN(C)C(=O)CN(C)C(=O)CN(C)C(=O)CN(C)C(=O)CN(C)C(=O)CN(C)C(=O)CN(C)C(=O)CN(C)C(=O)CC[C@H](NC(=O)CC[C@H](NC(=O)CC[C@H](NC(=O)CCCCCCCCCCCCCCCCC(=O)O)C(=O)O)C(=O)O)C(=O)O)CC1)C(=O)N[C@@H](CCCN)C(=O)N(C)[C@@H](C)C(=O)N[C@@H](CCCNC(=N)N)C(=O)NCC(N)=O` [Compound 20, C18DA-gGlu3-Sar12-AEPipAc-Tyr-Phe-NMeLeu-Nle-Orn-NMeAla-Arg-Gly-NH2] the same measures were above 1000 nM, 2.2 nM, 12.1 nM and 8400 µg/mL (≈ 3.13 mM).
As to `CCCC[C@H](NC(=O)[C@H](CC(C)C)N(C)C(=O)[C@H](Cc1ccccc1)NC(=O)[C@H](Cc1ccc(O)cc1)NC(=O)CN1CCN(CCNC(=O)CN(C)C(=O)CN(C)C(=O)CN(C)C(=O)CN(C)C(=O)CN(C)C(=O)CN(C)C(=O)CN(C)C(=O)CN(C)C(=O)CN(C)C(=O)CN(C)C(=O)CN(C)C(=O)CN(C)C(=O)CC[C@H](NC(=O)CC[C@H](NC(=O)CC[C@H](NC(=O)CCCCCCCCCCCCCCCCC(=O)O)C(=O)O)C(=O)O)C(=O)O)CC1)C(=O)N[C@@H](CCN)C(=O)N(C)[C@@H](C)C(=O)N[C@@H](CCCNC(=N)N)C(=O)NCC(N)=O` [Compound 38, C18DA-gGlu3-Sar12-AEPipAc-Tyr-Phe-NMeLeu-Nle-Dbu-NMeAla-Arg-Gly-NH2], the EC50 on human NMUR1 receptor was above 1000 nM; at human NMUR2 receptor [1], 1.9 nM; on human NMUR2 receptor [2], 9.7 nM. Moreover, in “physchem” (pH 7.2), the solubility at 2 h was 8800 µg/mL (≈ 3.29 mM).
For `CCCC[C@H](NC(=O)[C@H](CC(C)C)N(C)C(=O)[C@H](Cc1ccccc1)NC(=O)[C@H](Cc1ccc(O)cc1)NC(=O)CN1CCN(CCNC(=O)CN(C)C(=O)CN(C)C(=O)CN(C)C(=O)CN(C)C(=O)CN(C)C(=O)CN(C)C(=O)CN(C)C(=O)CN(C)C(=O)CN(C)C(=O)CN(C)C(=O)CN(C)C(=O)CN(C)C(=O)CC[C@H](NC(=O)CC[C@H](NC(=O)CC[C@H](NC(=O)CCCCCCCCCCCCCCCCC(=O)O)C(=O)O)C(=O)O)C(=O)O)CC1)C(=O)N[C@@H](CCN)C(=O)N1CCC[C@H]1C(=O)N[C@@H](CCCNC(=N)N)C(=O)NCC(N)=O` [Compound 27, C18DA-gGlu3-Sar12-AEPipAc-Tyr-Phe-NMeLeu-Nle-Dbu-Pro-Arg-Gly-NH2], in that order: 1700 nM, 1.2 nM, 6.9 nM and 8800 µg/mL (≈ 3.28 mM).

Values taken from patent publication US20240279278A1, “NMU RECEPTOR 2 AGONISTS” (Boehringer Ingelheim International GmbH, priority 2023, published 2024).
